According to patent US11325884B2, “Ketone inhibitors of lysine gingipain” (CORTEXYME, INC., priority 2016, dated 2022):

Columns and labels:
[1] = system: P. gingivalis infection; experiment: Related studies: brain abeta42 and neuroinflammation; assay type: in vivo
Excerpt: By inhibiting Kgp, the compounds disclosed herein can treat P. gingivalis infection itself, as well as the detrimental effects of neurological disease and other infection-associated conditions.

[2] = target: Kgp (Porphyromonas gingivalis (Bacteroides gingivalis), UniProt Q51817); experiment: Detection of Kgp with Cy5 activity-based probe (SDS-PAGE, Cy5 visualization); assay type: binding; conditions: 100 nM preincubation, P. gingivalis W83
Procedure: It has a warhead that binds to the Kgp active site, a peptide-based core, and a Cy5 fluorophore for detection. Labeled target proteins can be visualized by biochemical separation of a sample with fractionation by 2-D gel electrophoresis and detection of fluorescent signals from Cy5 at the appropriate excitation and emission wavelength. Incubation of a fixed concentration of the probe following binding of Kgp to a test compound (e.g., a candidate Kgp inhibitor) results in binding of the activity probe to Kgp active sites not already bound by the test compound.
Preparation of P. gingivalis lysate. 10^8 bacteria were collected and centrifuged at 5000 g for 10 min at 4° C., and the supernatant was discarded. The bacterial cell pellet was lysed with 1 mL of B-Per lysis buffer (Thermo Fischer) on ice for 10 min, then centrifuged for 10 min at 14000 g, 4° C. Supernatant-containing protein lysate was collected. Biological samples were lysed with B-Per lysis buffer for 10 min at 4° C.
Cy5 direct labeling of Kgp. Biological samples, P. gingivalis lysate or purified Kgp were incubated with quenchable Cy5 probe compound 71 (1 μM) for 1 h at 37° C. with shaking. […]

[3] = system: P. gingivalis W83; experiment: Experimental periodontitis / P. gingivalis infection mouse model; assay type: in vivo, BALB/C female mice; conditions: for alveolar bone loss: week 5-10, vs vehicle; for reduction in P. gingivalis DNA copy number (RgpB gene) in brain tissue: between week 5 and 10
Excerpt: P. gingivalis applied over several weeks directly to the gingiva of mice has been used as a model for periodontitis. Alveolar bone resorption, a hallmark of periodontitis progression, is typically observed when this model employed. More recently, use of the model has also led to the discovery of a significant amount P. gingivalis in the brain, which accumulates concomitantly with oral colonization and which subsequently leads to detrimental effects such as inflammation and loss of hippocampal neurons.
At the beginning of the study, eight week old BALB/C female mice received antibiotic in drinking water (sulfamethoxazolum 0.87 mg/mL, trimethoprimum 0.17 mg/mL) for 10 days to reduce microbiome protection from experiment infection. Experimental periodontitis was induced by ligature placement followed by multiple exposures to P. gingivalis. During the ligature procedure mice were anesthetized with an intraperitoneal injection of ketamine (200 mg/kg) and xylazine (10 mg/kg), and eyes were lubricated with ointment (Puralube Vet; Pharmaderm, Melville, N.Y.). Next, a 5-0 silk ligature (Roboz Surgical Instrument Co.) was tied around the upper maxillary left and right second molar. Sutures were applied and tied gently to prevent damage to the periodontal tissue.
Mice (n=8-10/arm) were infected for 6 weeks every other day. For infection, 100 μL of bacteria solution were applied topically to the buccal surface of the maxillae. For preparation of the bacteria, P. gingivalis W83 (ATCC, Rockville, Md.) was streaked on Tryptic Soy Broth (TSB) agar plates (5% sheep blood, supplemented with 0.5 mg/mL L-cysteine, 5 μg/mL hemin, and 0.5 μg/mL vitamin K) and grown under anaerobic conditions at 37° C. for 5-7 days. Samples were then inoculated in TSB with hemin, vitamin K and L-cysteine (TSB-HKC) until mid-log phase (OD600=0.5-0.7). Bacteria were washed in PBS and prepared at final concentration of 1×10^10 cells/mL in PBS+2% methylcellulose (CMC).
Vehicle-treated animals received PBS only. At 5 weeks, a subgroup of animals (n=16) were euthanized to gather baseline measurements before the start of treatment. After 10 weeks, mice were euthanized and the brain, serum, and maxillary tissues were harvested and frozen in liquid nitrogen.
Bone loss in the maxillae was measured ex vivo blinded using OsiriX MD software (PixmeoSARL, Bernex, Switzerland). Point of measurements were obtained using 3D Multi Planar Reconstruction (MPR) view where the maxillae were sliced straight along the superficial roots of second molar and the posterior root of first molar, with a tangent of the anterior root of the first molar. The distance between the cementoenamel junction (CEJ) and the alveolar bone crest (ABC) was measured from the CEJ to a reference line on the ABC which was placed perpendicular to the superficial root one each side of the second molar. […] (ANOVA: F (5, 24)=15.71, p<0.0001; t-test with Bonferroni correction: **p<0.005, ***p<0.001).
DNA was extracted from brain tissue using the DNeasyBLOOD & TISSUE KIT (Qiagen, Germany) according to manufacturer's protocol. Taqman qPCR was performed with Kapa Probe fast qPCR Mix (Rox Low) on a Bio-Rad CFX96 Real-Time System C1000 Touch ThermalCycler with forward and reverse primers, and a detection probe. The primers were based on a single copy of P. gingivalis arginine-specific cysteine-proteinase gene. Duplicate samples were assayed in a total volume of 10 μL, containing 100 ng of template brain genomic DNA solution, TaqMan Universal PCR Master Mix (2×) (Kapa Biosystems, USA), and the specific set of primers (final concentration 5 μM) and probe (final concentration 4 μM) (GenoMed, Poland), corresponding to 562.5 nM for the forward and reverse primers and 100 nM for the probe primer. After an initial incubation step of 2 min at 50° C. and denaturation for 95° C. for 20 sec, 40 PCR cycles (95° C. for 20 s, 60° C. for 30 sec) were performed. […]

[4] = Oral pharmacokinetics in CD-1 mice; assay type: in vivo; conditions: male CD-1 mice, p.o. 10 mg/kg, as compared to reference compound 73
[5] = in vivo, po; cited from earlier work

Kgp, sequence (Q51817 229-737 limits assumed): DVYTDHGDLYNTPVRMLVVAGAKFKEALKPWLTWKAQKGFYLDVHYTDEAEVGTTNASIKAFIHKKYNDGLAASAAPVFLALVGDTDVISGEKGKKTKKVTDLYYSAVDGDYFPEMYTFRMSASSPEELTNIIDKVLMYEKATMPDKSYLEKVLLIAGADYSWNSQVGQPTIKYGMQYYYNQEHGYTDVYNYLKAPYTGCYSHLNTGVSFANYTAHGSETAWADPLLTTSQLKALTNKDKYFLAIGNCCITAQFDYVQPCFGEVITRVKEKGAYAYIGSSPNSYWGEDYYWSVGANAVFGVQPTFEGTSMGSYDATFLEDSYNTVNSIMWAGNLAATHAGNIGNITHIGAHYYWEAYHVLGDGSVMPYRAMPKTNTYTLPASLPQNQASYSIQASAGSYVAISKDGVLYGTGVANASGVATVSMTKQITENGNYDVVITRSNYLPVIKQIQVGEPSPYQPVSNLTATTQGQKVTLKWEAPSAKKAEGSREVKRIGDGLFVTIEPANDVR

NCCCC[C@H](NC(=O)C1CCCC1)C(=O)COc1c(F)ccc(F)c1F [Compound 1, (S)—N-(7-amino-2-oxo-1-(2,3,6-trifluorophenoxy)heptan-3-yl)cyclopentanecarboxamide]
induction of brain abeta42 [1]: reduce | neuroinflammation [1]: reduce | competition for Kgp active site binding with probe compound 71 [2]: competes for active site binding | alveolar bone loss ([3]; 3 mg/kg orally b.i.d.): trended to improvement but did not result in significant improvement | reduction in P. gingivalis DNA copy number (RgpB gene) in brain tissue ([3]; 3 mg/kg): 50% | alveolar bone loss ([3]; 10 mg/kg orally b.i.d.): improved | reduction in P. gingivalis DNA copy number (RgpB gene) in brain tissue ([3]; 10 mg/kg): 50% | alveolar bone loss ([3]; 30 mg/kg orally b.i.d.): improved | reduction in P. gingivalis DNA copy number (RgpB gene) in brain tissue ([3]; 30 mg/kg): 80% | GAD67 positive interneurons in the dentate gyrus ([3]; 10 weeks, infected untreated mice lost 25%): at the same level as the GAD67^+ cells in the mock-infected mice | oral availability [4]: improved | plasma concentrations [4]: increased

CN(NC(=O)CC[C@H](NC(=O)OCc1ccccc1)C(=O)N[C@@H](CCCCN)C(=O)C(=O)NCc1ccccc1)c1ccccc1 [Kyt-36]
half-life [5]: increases
